From patent US12263172B2, “Toll-like receptor agonists for use in the treatment of hepatitis b” (priority 2019, dated 2025)
Several values for one entry are separate records, joined by “and”; a condition that tells them apart may be missing. Equal entries are not always repeated.

Test: Phase 1 single-ascending dose (Part 1): safety and tolerability in healthy adults
Type: in vivo, human
Experimental: This ongoing trial is a Phase 1 randomized, double-blind, placebo-controlled study in male and female healthy adult volunteers aged 18-55 years. All volunteers provided written, informed consent.
All volunteers were followed up for 4 weeks and safety and tolerability were continuously assessed throughout the study. All adverse events (AEs) were recorded from the time of consent to the completion visit and were graded using the DAIDS toxicity grading scale. Volunteers also underwent physical examinations, electrocardiograms, vital sign checks and clinical laboratory parameters (chemistry, haematology, urinalysis).

CCCCOc1nc(N)c2[nH]cc(Cc3ccc(CN4CCCC4)cc3)c2n1 [Compound 4]
subjects with at least one SAE (single dose 1.25 mg fasted): 0 n (%) | subjects with at least one fatal AE (single dose 1.25 mg fasted): 0 n (%) | subjects with at least one grade 1 AE (single dose 1.25 mg fasted): 7 (87.5%) n (%) | subjects with at least one grade 2 AE (single dose 1.25 mg fasted): 1 (12.5%) n (%) | subjects with at least one grade 3 or 4 AE (single dose 1.25 mg fasted): 0 n (%) | subjects with fever and flu-like symptoms (flu-like AEs and lymphopenia) (single dose 1.25 mg fasted): 3 and 3/8 | treatment-related AE: Any AE (single dose 1.25 mg fasted): 6 (75.0%) n (%) | treatment-related AE: Chills (single dose 1.25 mg fasted): 0 n (%) | treatment-related AE: Dizziness (single dose 1.25 mg fasted): 0 n (%) | treatment-related AE: General disorders and administration site conditions (single dose 1.25 mg fasted): 3 (37.5%) n (%) | treatment-related AE: Headache (single dose 1.25 mg fasted): 4 (50.0%) n (%) | treatment-related AE: Hypertension (single dose 1.25 mg fasted): 0 n (%) | treatment-related AE: Myalgia (single dose 1.25 mg fasted): 3 (37.5%) n (%) | treatment-related AE: Nervous system disorders (single dose 1.25 mg fasted): 4 (50.0%) n (%) | treatment-related AE: Oropharyngeal pain (single dose 1.25 mg fasted): 2 (25.0%) n (%) | treatment-related AE: Pyrexia (single dose 1.25 mg fasted): 3 (37.5%) n (%) | treatment-related AE: Respiratory, thoracic and mediastinal disorders (single dose 1.25 mg fasted): 2 (25.0%) n (%) | treatment-related AE: Vascular disorder (single dose 1.25 mg fasted): 0 n (%) | vital signs: Respiratory rate (brpm) Grade 1 (single dose 1.25 mg fasted): 7 (87.5%) n (%) | vital signs: Respiratory rate (brpm) Grade 2 (single dose 1.25 mg fasted): 0 n (%) | vital signs: SaO2 (%) 90% to <95% (single dose 1.25 mg fasted): 3 (37.5%) n (%) | vital signs: SaO2 (%) 95% to <98% (single dose 1.25 mg fasted): 3 (37.5%) n (%) | vital signs: Standing DBP (mmHg) Grade 1 (single dose 1.25 mg fasted): 1 (12.5%) n (%) | vital signs: Standing DBP (mmHg) Grade 2 (single dose 1.25 mg fasted): 2 (25.0%) n (%) | vital signs: Standing DBP (mmHg) Grade 3 (single dose 1.25 mg fasted): 0 n (%) | vital signs: Standing DBP (mmHg) Low (single dose 1.25 mg fasted): 0 n (%) | vital signs: Standing SBP (mmHg) Grade 1 (single dose 1.25 mg fasted): 1 (12.5%) n (%) | vital signs: Standing SBP (mmHg) Low (single dose 1.25 mg fasted): 1 (12.5%) n (%) | vital signs: Standing pulse (bpm) High (single dose 1.25 mg fasted): 1 (12.5%) n (%) | vital signs: Standing pulse (bpm) Low (single dose 1.25 mg fasted): 0 n (%) | vital signs: Supine DBP (mmHg) Grade 1 (single dose 1.25 mg fasted): 1 (12.5%) n (%) | vital signs: Supine DBP (mmHg) Low (single dose 1.25 mg fasted): 0 n (%) | vital signs: Supine SBP (mmHg) Grade 1 (single dose 1.25 mg fasted): 1 (12.5%) n (%) | vital signs: Supine SBP (mmHg) Grade 2 (single dose 1.25 mg fasted): 0 n (%) | vital signs: Supine SBP (mmHg) Low (single dose 1.25 mg fasted): 1 (12.5%) n (%) | vital signs: Supine pulse (bpm) Low (single dose 1.25 mg fasted): 0 n (%) | ↑ AST Grade 3 (laboratory abnormality) (single dose 1.25 mg fasted): 0 n (%) | ↑ Amylase Grade 2 (laboratory abnormality) (single dose 1.25 mg fasted): 0 n (%) | ↑ Cholesterol Grade 2 (laboratory abnormality) (single dose 1.25 mg fasted): 1 (17) n (%) | ↑ Creatine kinase Grade 2 (laboratory abnormality) (single dose 1.25 mg fasted): 0 n (%) | ↑ Creatine kinase Grade 4 (laboratory abnormality) (single dose 1.25 mg fasted): 0 n (%) | ↑ Glucose Grade 2 (laboratory abnormality) (single dose 1.25 mg fasted): 1 (13) n (%) | ↑ LDL cholesterol Grade 2 (laboratory abnormality) (single dose 1.25 mg fasted): 0 n (%) | ↑ LDL cholesterol Grade 3 (laboratory abnormality) (single dose 1.25 mg fasted): 1 (13) n (%) | ↑ Lipase Grade 2 (laboratory abnormality) (single dose 1.25 mg fasted): 0 n (%) | ↑ Pancreatic amylase Grade 2 (laboratory abnormality) (single dose 1.25 mg fasted): 0 n (%) | ↑ Potassium Grade 2 (laboratory abnormality) (single dose 1.25 mg fasted): 0 n (%) | ↑ Sodium Grade 2 (laboratory abnormality) (single dose 1.25 mg fasted): 1 (13) n (%) | ↑ Triglycerides Grade 2 (laboratory abnormality) (single dose 1.25 mg fasted): 4 (50) n (%) | ↑ Triglycerides Grade 3 (laboratory abnormality) (single dose 1.25 mg fasted): 0 n (%) | ↓ Bicarbonate Grade 2 (laboratory abnormality) (single dose 1.25 mg fasted): 0 n (%) | ↓ Lymphocytes Grade 2 (laboratory abnormality) (single dose 1.25 mg fasted): 1 (13) n (%) | ↓ Lymphocytes Grade 4 (laboratory abnormality) (single dose 1.25 mg fasted): 0 n (%) | ↓ Neutrophils Grade 2 (laboratory abnormality) (single dose 1.25 mg fasted): 0 n (%) | ↓ Phosphate Grade 2 (laboratory abnormality) (single dose 1.25 mg fasted): 0 n (%) | Any AE (treatment-emergent) (single dose 1.25 mg fed): 6 (86) n (%) | Back pain Grade 1 (treatment-emergent AE) (single dose 1.25 mg fed): 0 n (%) | Chills Grade 1 (treatment-emergent AE) (single dose 1.25 mg fed): 0 n (%) | Contact dermatitis Grade 1 (treatment-emergent AE) (single dose 1.25 mg fed): 0 n (%) | Dizziness Grade 1 (treatment-emergent AE) (single dose 1.25 mg fed): 0 n (%) | ECG actual value: Heart rate (bpm) Low (single dose 1.25 mg fed): 0 n (%) | ECG actual value: QRS (ms) High (single dose 1.25 mg fed): 0 n (%) | ECG actual value: QTcB (ms) ]450; 480] (single dose 1.25 mg fed): 0 n (%) | ECG actual value: QTcF (ms) ]450; 480] (single dose 1.25 mg fed): 0 n (%) | ECG change from reference: QTcB (ms) [30; 60] (single dose 1.25 mg fed): 2 (28.6%) n (%) | ECG change from reference: QTcF (ms) [30; 60] (single dose 1.25 mg fed): 1 (14.3%) n (%) | Headache Grade 1 (treatment-emergent AE) (single dose 1.25 mg fed): 1 (14) n (%) | Headache Grade 2 (treatment-emergent AE) (single dose 1.25 mg fed): 0 n (%) | Hypertension Grade 1 (treatment-emergent AE) (single dose 1.25 mg fed): 0 n (%) | Hypertension Grade 2 (treatment-emergent AE) (single dose 1.25 mg fed): 0 n (%) | Myalgia Grade 1 (treatment-emergent AE) (single dose 1.25 mg fed): 0 n (%) | Oropharyngeal pain Grade 1 (treatment-emergent AE) (single dose 1.25 mg fed): 2 (29) n (%) | Pyrexia Grade 1 (treatment-emergent AE) (single dose 1.25 mg fed): 0 n (%) | Pyrexia Grade 2 (treatment-emergent AE) (single dose 1.25 mg fed): 0 n (%) | URTI Grade 1 (treatment-emergent AE) (single dose 1.25 mg fed): 1 (14) n (%) | lab toxicity: Amylase (U/L), upwards, Grade 1 (single dose 1.25 mg fed): 1 (14.3%) n (%) | lab toxicity: Amylase (U/L), upwards, Grade 2 (single dose 1.25 mg fed): 0 n (%) | lab toxicity: Cholesterol (mmol/L), upwards, Grade 1 (single dose 1.25 mg fed): 0 n (%) | lab toxicity: Cholesterol (mmol/L), upwards, Grade 2 (single dose 1.25 mg fed): 0 n (%) | lab toxicity: Creatine kinase (U/L), upwards, Grade 1 (single dose 1.25 mg fed): 0 n (%) | lab toxicity: Creatine kinase (U/L), upwards, Grade 2 (single dose 1.25 mg fed): 0 n (%) | lab toxicity: Creatine kinase (U/L), upwards, Grade 4 (single dose 1.25 mg fed): 0 n (%) | lab toxicity: Glucose (mmol/L), upwards, Grade 1 (single dose 1.25 mg fed): 2 (28.6%) n (%) | lab toxicity: Glucose (mmol/L), upwards, Grade 2 (single dose 1.25 mg fed): 0 n (%) | lab toxicity: LDL cholesterol (mmol/L, calculated), upwards, Grade 1 (single dose 1.25 mg fed): 1 (14.3%) n (%) | lab toxicity: LDL cholesterol (mmol/L, calculated), upwards, Grade 2 (single dose 1.25 mg fed): 0 n (%) | lab toxicity: LDL cholesterol (mmol/L, calculated), upwards, Grade 3 (single dose 1.25 mg fed): 0 n (%) | lab toxicity: Lymphocytes (giga/L), downwards, Grade 2 (single dose 1.25 mg fed): 0 n (%) | lab toxicity: Lymphocytes (giga/L), downwards, Grade 4 (single dose 1.25 mg fed): 0 n (%) | lab toxicity: Neutrophils, segmented (giga/L), downwards, Grade 1 (single dose 1.25 mg fed): 0 n (%) | lab toxicity: Neutrophils, segmented (giga/L), downwards, Grade 2 (single dose 1.25 mg fed): 0 n (%) | lab toxicity: Platelets (giga/L), downwards, Grade 1 (single dose 1.25 mg fed): 0 n (%) | lab toxicity: Sodium (mmol/L), upwards, Grade 1 (single dose 1.25 mg fed): 3 (42.9%) n (%) | lab toxicity: Sodium (mmol/L), upwards, Grade 2 (single dose 1.25 mg fed): 0 n (%) | lab toxicity: Triglycerides (mmol/L), upwards, Grade 1 (single dose 1.25 mg fed): 3 (42.9%) n (%) | lab toxicity: Triglycerides (mmol/L), upwards, Grade 2 (single dose 1.25 mg fed): 1 (14.3%) n (%) | lab toxicity: Triglycerides (mmol/L), upwards, Grade 3 (single dose 1.25 mg fed): 0 n (%) | lab toxicity: Urate (μmol/L), upwards, Grade 1 (single dose 1.25 mg fed): 0 n (%) | subjects with at least one AE (single dose 1.25 mg fed): 6 (85.7%) n (%) | subjects with at least one AE for which any study drug or study was permanently stopped (single dose 1.25 mg fed): 0 n (%) | subjects with at least one AE for which any study drug or study was temporarily stopped (single dose 1.25 mg fed): 0 n (%) | subjects with at least one AE possibly related to any study drug (single dose 1.25 mg fed): 1 (14.3%) n (%) | subjects with at least one AE possibly, probably or very likely related to any study drug (single dose 1.25 mg fed): 1 (14.3%) n (%) | subjects with at least one AE probably related to any study drug (single dose 1.25 mg fed): 0 n (%) | subjects with at least one AE very likely related to any study drug (single dose 1.25 mg fed): 0 n (%) | subjects with at least one SAE (single dose 1.25 mg fed): 0 n (%) | subjects with at least one fatal AE (single dose 1.25 mg fed): 0 n (%) | subjects with at least one grade 1 AE (single dose 1.25 mg fed): 6 (85.7%) n (%) | subjects with at least one grade 2 AE (single dose 1.25 mg fed): 0 n (%) | subjects with at least one grade 3 or 4 AE (single dose 1.25 mg fed): 0 n (%) | treatment-related AE: Any AE (single dose 1.25 mg fed): 1 (14.3%) n (%) | treatment-related AE: Chills (single dose 1.25 mg fed): 0 n (%) | treatment-related AE: Dizziness (single dose 1.25 mg fed): 0 n (%) | treatment-related AE: General disorders and administration site conditions (single dose 1.25 mg fed): 0 n (%) | treatment-related AE: Headache (single dose 1.25 mg fed): 0 n (%) | treatment-related AE: Hypertension (single dose 1.25 mg fed): 0 n (%) | treatment-related AE: Myalgia (single dose 1.25 mg fed): 0 n (%) | treatment-related AE: Nervous system disorders (single dose 1.25 mg fed): 0 n (%) | treatment-related AE: Oropharyngeal pain (single dose 1.25 mg fed): 1 (14.3%) n (%) | treatment-related AE: Pyrexia (single dose 1.25 mg fed): 0 n (%) | treatment-related AE: Respiratory, thoracic and mediastinal disorders (single dose 1.25 mg fed): 1 (14.3%) n (%) | treatment-related AE: Vascular disorder (single dose 1.25 mg fed): 0 n (%) | vital signs: Respiratory rate (brpm) Grade 1 (single dose 1.25 mg fed): 3 (42.9%) n (%) | vital signs: Respiratory rate (brpm) Grade 2 (single dose 1.25 mg fed): 0 n (%) | vital signs: SaO2 (%) 90% to <95% (single dose 1.25 mg fed): 1 (14.3%) n (%) | vital signs: SaO2 (%) 95% to <98% (single dose 1.25 mg fed): 3 (42.9%) n (%) | vital signs: Standing DBP (mmHg) Grade 1 (single dose 1.25 mg fed): 1 (14.3%) n (%) | vital signs: Standing DBP (mmHg) Grade 2 (single dose 1.25 mg fed): 2 (28.6%) n (%) | vital signs: Standing DBP (mmHg) Grade 3 (single dose 1.25 mg fed): 1 (14.3%) n (%) | vital signs: Standing DBP (mmHg) Low (single dose 1.25 mg fed): 0 n (%) | vital signs: Standing SBP (mmHg) Grade 1 (single dose 1.25 mg fed): 3 (42.9%) n (%) | vital signs: Standing SBP (mmHg) Low (single dose 1.25 mg fed): 0 n (%) | vital signs: Standing pulse (bpm) High (single dose 1.25 mg fed): 1 (14.3%) n (%) | vital signs: Standing pulse (bpm) Low (single dose 1.25 mg fed): 0 n (%) | vital signs: Supine DBP (mmHg) Grade 1 (single dose 1.25 mg fed): 1 (14.3%) n (%) | vital signs: Supine DBP (mmHg) Low (single dose 1.25 mg fed): 0 n (%)
